Measurements from PubChem BioAssay AID1963963 (Molecular Pharmacology Branch, DTP, NCI, 2024).

System: 958667-338-R-J2-PDC tumor spheroids viability
Assay: Anticancer human tumor 958667-338-R-J2-PDC patient-derived colon adenocarcinoma cell line growth inhibition [PI3K]
Conditions: spheroids with HUVEC and MSC; for IC50: curve of first compound; for viability, T/C: stronger effect = lower value; active = viability on the fitted dose curve at most 10% of control; inactive = the rest
Outline: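 Viability of mixed-cell spheroids was determined after exposure to pairwise combinations, one partner being inavolisib, alpelisib, duvelisib or copanlisib. Highest tested concentration matched clinical Cmax where known and 10 microM where not, descending in half-log steps.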
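Also: spheroids exposed to compounds for seven days before readout.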

Cn1cnc2c(F)c(Nc3ccc(Br)cc3Cl)c(C(=O)NOCCO)cc21 + CC(Nc1ccc2c(c1)OCCn1cc(N3C(=O)OCC3C(F)F)nc1-2)C(N)=O
inactive: viability, T/C (second compound 0.00316 µM, first compound 0.00949 µM) 86.6% | viability, T/C (second compound 0.00316 µM, first compound 0.03 µM) 74.4% | viability, T/C (second compound 0.00316 µM, first compound 0.0949 µM) 95.9% | viability, T/C (second compound 0.00316 µM, first compound 0.3 µM) 57.2% | viability, T/C (second compound 0.00316 µM, first compound 0.949 µM) 32% | viability, T/C (second compound 0.00316 µM, first compound 3 µM) 16.8% | viability, T/C (second compound 0.01 µM, first compound 0.00949 µM) 92.2% | viability, T/C (second compound 0.01 µM, first compound 0.03 µM) 101% | viability, T/C (second compound 0.01 µM, first compound 0.0949 µM) 73% | viability, T/C (second compound 0.01 µM, first compound 0.3 µM) 54.4% | viability, T/C (second compound 0.01 µM, first compound 0.949 µM) 30% | viability, T/C (second compound 0.01 µM, first compound 3 µM) 12.9% | viability, T/C (second compound 0.0316 µM, first compound 0.00949 µM) 88.6% | viability, T/C (second compound 0.0316 µM, first compound 0.03 µM) 76.3% | viability, T/C (second compound 0.0316 µM, first compound 0.0949 µM) 60.1% | viability, T/C (second compound 0.0316 µM, first compound 0.3 µM) 42.4% | viability, T/C (second compound 0.0316 µM, first compound 0.949 µM) 20.8% | viability, T/C (second compound 0.1 µM, first compound 0.00949 µM) 78.7% | viability, T/C (second compound 0.1 µM, first compound 0.03 µM) 57.5% | viability, T/C (second compound 0.1 µM, first compound 0.0949 µM) 57.5% | viability, T/C (second compound 0.1 µM, first compound 0.3 µM) 25.3% | viability, T/C (second compound 0.1 µM, first compound 0.949 µM) 17% | viability, T/C (second compound 0.316 µM, first compound 0.00949 µM) 59.7% | viability, T/C (second compound 0.316 µM, first compound 0.03 µM) 59.5% | viability, T/C (second compound 0.316 µM, first compound 0.0949 µM) 46.9% | viability, T/C (second compound 0.316 µM, first compound 0.3 µM) 23.7% | viability, T/C (second compound 0.316 µM, first compound 0.949 µM) 15.7% | viability, T/C (second compound 1 µM, first compound 0.00949 µM) 44.6% | viability, T/C (second compound 1 µM, first compound 0.03 µM) 43% | viability, T/C (second compound 1 µM, first compound 0.0949 µM) 34.8% | viability, T/C (second compound 1 µM, first compound 0.3 µM) 22.8% | viability, T/C (second compound 1 µM, first compound 0.949 µM) 11.5%
0.436 µM: IC50 (second compound 0.00316 µM)
0.358 µM: IC50 (second compound 0.01 µM)
0.0669 µM: IC50 (second compound 0.316 µM)
< 0.00949 µM: IC50 (second compound 1 µM)
active: viability, T/C (second compound 0.0316 µM, first compound 3 µM) 9.82% | viability, T/C (second compound 0.1 µM, first compound 3 µM) 8.31% | viability, T/C (second compound 0.316 µM, first compound 3 µM) 5.79% | viability, T/C (second compound 1 µM, first compound 3 µM) 3.12%
0.0875 µM: IC50 (second compound 0.1 µM)
0.174 µM: IC50 (second compound 0.0316 µM)

C#Cc1c(F)ccc2cc(O)cc(-c3ncc4c(N5CC6CCC(C5)N6)nc(OCC56CCCN5CC(F)C6)nc4c3F)c12 (centres undefined) + Cc1nc(NC(=O)N2CCCC2C(N)=O)sc1-c1ccnc(C(C)(C)C(F)(F)F)c1
1.79 µM: IC50 (second compound 3.16 µM)
> 10 µM: IC50 (second compound 0.0316 µM) | IC50 (second compound 0.1 µM) | IC50 (second compound 0.316 µM)
4.15 µM: IC50 (second compound 1 µM)
inactive: viability, T/C (second compound 0.0316 µM, first compound 0.0316 µM) 82.9% | viability, T/C (second compound 0.0316 µM, first compound 0.1 µM) 83.3% | viability, T/C (second compound 0.0316 µM, first compound 0.316 µM) 79.5% | viability, T/C (second compound 0.0316 µM, first compound 1 µM) 95.8% | viability, T/C (second compound 0.0316 µM, first compound 3.16 µM) 67.7% | viability, T/C (second compound 0.0316 µM, first compound 10 µM) 70.6% | viability, T/C (second compound 0.1 µM, first compound 0.0316 µM) 70.9% | viability, T/C (second compound 0.1 µM, first compound 0.1 µM) 79.6% | viability, T/C (second compound 0.1 µM, first compound 0.316 µM) 93.5% | viability, T/C (second compound 0.1 µM, first compound 1 µM) 87.1% | viability, T/C (second compound 0.1 µM, first compound 3.16 µM) 76.8% | viability, T/C (second compound 0.1 µM, first compound 10 µM) 57.3% | viability, T/C (second compound 0.316 µM, first compound 0.0316 µM) 93.9% | viability, T/C (second compound 0.316 µM, first compound 0.1 µM) 109% | viability, T/C (second compound 0.316 µM, first compound 0.316 µM) 69% | viability, T/C (second compound 0.316 µM, first compound 1 µM) 56.2% | viability, T/C (second compound 0.316 µM, first compound 3.16 µM) 82.1% | viability, T/C (second compound 0.316 µM, first compound 10 µM) 52.5% | viability, T/C (second compound 1 µM, first compound 0.0316 µM) 82.8% | viability, T/C (second compound 1 µM, first compound 0.1 µM) 82.6% | viability, T/C (second compound 1 µM, first compound 0.316 µM) 67.3% | viability, T/C (second compound 1 µM, first compound 1 µM) 65.7% | viability, T/C (second compound 1 µM, first compound 3.16 µM) 52% | viability, T/C (second compound 1 µM, first compound 10 µM) 41.4% | viability, T/C (second compound 3.16 µM, first compound 0.0316 µM) 72.1% | viability, T/C (second compound 3.16 µM, first compound 0.1 µM) 59.9% | viability, T/C (second compound 3.16 µM, first compound 0.316 µM) 75.2% | viability, T/C (second compound 3.16 µM, first compound 1 µM) 50.2% | viability, T/C (second compound 3.16 µM, first compound 3.16 µM) 46.1% | viability, T/C (second compound 3.16 µM, first compound 10 µM) 29.4% | viability, T/C (second compound 10 µM, first compound 0.0316 µM) 60.1% | viability, T/C (second compound 10 µM, first compound 0.1 µM) 47.5% | viability, T/C (second compound 10 µM, first compound 0.316 µM) 43.9% | viability, T/C (second compound 10 µM, first compound 1 µM) 49.6% | viability, T/C (second compound 10 µM, first compound 3.16 µM) 34.1%
0.368 µM: IC50 (second compound 10 µM)
active: viability, T/C (second compound 10 µM, first compound 10 µM) 1.14%
